Laboratory results: patent US11802114B2, “Compounds and methods for detection of superoxide” (Promega Corporation, priority 2021, dated 2023)

Experiments:
[1] = test system: xanthine oxidase; experiment: Detection of xanthine oxidase activity in vitro; type: biochemical; conditions: 25 μl of 75 μM probe, FIG. 5
Text: Xanthine oxidase (XO) is an enzyme that catalyzes the oxidation of hypoxanthine or xanthine to uric acid and superoxide. XO is normally found in liver and jejunum and plays an important role in the catabolism of purines. During severe liver damage, xanthine oxidase is released into blood and can be used as a marker for liver damage. Here is shown an example of measuring xanthine oxidase activity using pro-luciferin compounds described herein. Purified xanthine oxidase was 3× fold serially diluted in 0.1M Tris (pH7.5). 25 μl of diluted enzyme was transferred into wells of a 96-well assay plate, and the reaction was started by adding 25 μl of 300 μM xanthine and 25 μl of 75 μM Compound 20. After 10, 20, 30, and 60 minutes incubations at 37° C., 75 μl of Luciferin Detection Reagent containing esterases was added to the samples, and luminescence was read after additional 20 minutes incubation at room temperature.

[2] = test system: RAW 247.6 macrophage cell line; experiment: Detection of PMA-induced superoxide production by macrophages; type: cell-based; conditions: 50 μl of 50 μM Compound 18 (FIG. 6A) or 100 μM Compound 20 (FIG. 6B), 2 hours at 37° C.; for luminescence signal with PMA treatment: 20 μM PMA
Protocol: Production of superoxide by macrophages plays an important role in immune response and inflammation. Superoxide is produced by nicotinamide adenine dinucleotide phosphate (NADPH) oxidases (known as NOX enzymes) and is induced by PMA (4β-phorbol-12-myristate-13-acetate). Here is shown an example of measuring PMA-induced superoxide production in RAW 247.6 macrophage cell line. RAW 247.6 cells were plated overnight in DMEM medium with 10% FBS. To start the experiment, the medium was removed, cells were washed once with PBS, and 50 μl of PBS containing 5 mM glucose, 1 mM MgCl2, 0.5 mM CaCl2, and 0.05% BSA was added to the cells in the presence or absence of 20 μM PMA. To measure production of superoxide, 50 μl of 50 μM Compound 18 (FIG. 6A) or 100 μM Compound 20 (FIG. 6B) was added to the cells. Cells were treated for 2 hours at 37° C. with luciferin production measured by adding equal volume of Luciferin Detection Reagent with esterases, and luminescence read after 20 minutes incubation at room temperature.

[3] = test system: RAW 247.6 macrophage cells; experiment: Detection of superoxide production in kinetic mode (media sampling); type: cell-based; conditions: 50 μM probe, 20 μM PMA, 10, 20, 30 and 60 minutes, FIG. 7
Protocol: RAW 247.6 macrophage cells were plated at 30,000 cells per well overnight in DMEM medium with 10% FBS. The following day, the medium was removed, and cells were washed with PBS. 100 μl PBS containing 5 mM glucose, 1 mM MgCl2, 0.5mM CaCl2, 0.05% BSA, and 50 μM Compound 20 were added to the cells in the presence or absence of 20 μM PMA. The cells were placed back at 37° C. in tissue culture incubator. At different time points (10, 20, 30 and 60 minutes), 10 μl was removed from the samples, mixed with 10 μl of Luciferin Detection Reagent with esterases, and luminescence read following a 20 minute incubation at room temperature.

[4] = test system: Human hepatocarcinoma cells (Hep G2); experiment: Detection of superoxide in cells; type: cell-based; conditions: probe 12.5 uM, 1 hour at 37° C., FIG. 4
Protocol: Human hepatocarcinoma cells (Hep G2) were plated into wells of 96-well white-walled assay tissue culture plates. Plated cells were incubated overnight in a humidified tissue culture incubator at 37° C. with 5% CO2. The following day the superoxide probe, Compound 1 (6-(4-hydroxy-3,5-dimethoxyphenoxy)benzo[d]thiazole-2-carbonitrile), was added to the cells in culture medium at a final concentration of 12.5 uM. Subsequently, dimethoxynaphthoquinone (DMNQ; 50 μM) or antimycin A (10 μM) diluted in culture medium was added to the reaction wells and the assay plate(s) were incubated for 1 hour in a humidified tissue culture incubator at 37° C. with 5% C02. For luciferin detection, the luciferin-utilizing luciferase enzyme, UltraGlo (Promega Corporation), was prepared by mixing Luciferin Detection Reagent (Promega), Reconstitution Buffer (Promega), and d-Cysteine (Promega), and one volume was added to the reaction. The plate was mixed using an orbital plate shaker, and luminescence was measured using a GloMax® luminometer.

[5] = test system: superoxide; experiment: Cell-free detection of and specificity for superoxide (luciferase luminescence); type: biochemical; conditions: probe 25 μM in PBS, FIG. 3
Protocol: The superoxide probe, Compound 1 (6-(4-hydroxy-3,5-dimethoxyphenoxy)benzo[d]thiazole-2-carbonitrile), was diluted into PBS to 25 μM into wells of a 96-well white-walled assay plate. Subsequently, generators of reactive oxygen and nitrogen species were diluted in PBS and added to the assay plate. The plate mixed using an orbital plate shaker for 5 minutes followed by a 30-minute incubation at room temperature protected from light. For luciferin detection, the luciferin-utilizing luciferase enzyme, UltraGlo (Promega Corporation), was prepared by mixing Luciferin Detection Reagent (Promega), Reconstitution Buffer (Promega), and d-Cysteine (Promega), and one volume was added to the reaction. The plate was mixed using an orbital plate shaker, and luminescence was measured using a GloMax® luminometer. Data are shown in FIG. 3; the blank includes PBS only; HX=hypoxanthine; XO=xanthine oxidase; and SOD=superoxide dismutase. […] This signal decreased in the presence of superoxide dismutase, confirming that superoxide is the source of the signal.

Row | SMILES | increase in luminescence signal versus xanthine oxidase concentration and time ([1]; 300 μM xanthine, 10, 20, 30, and 60 minutes at 37° C.) | increase in luminescence signal, dependence on substrate ([1]; 25 μl of 300 μM xanthine, serially diluted XO, 37° C.) | luminescence signal with PMA treatment [2] | luminescence signal in the presence of cells compared to medium only control [2] | luminescence signal over time in cells treated with PMA [3] | luminescence signal when cells were treated with DMNQ ([4]; DMNQ 50 μM) | luminescence signal when cells were treated with antimycin A ([4]; antimycin A 10 μM) | luminescence signal in the presence of NONOate ([5]; 30-minute incubation) | luminescence signal in the presence of Rose Bengal (generates singlet oxygen) ([5]; 30-minute incubation) | luminescence signal in the presence of hydrogen peroxide ([5]; 30-minute incubation) | luminescence signal in the presence of sodium nitrite ([5]; 30-minute incubation) | luminescence signal in the presence of superoxide dismutase ([5]; HX + XO + SOD) | luminescence signal in the presence of HX and XO ([5]; hypoxanthine + xanthine oxidase (superoxide generator), 30-minute incubation at room temperature)
1 | COC(=O)[C@H]1CSC(c2nc3ccc(OC(=O)N(C)CCN(C)C(=O)Oc4ccc(OC(C)=O)c(OC(C)=O)c4)cc3s2)=N1 [Compound 20, (S)-4-(((2-((((2-(4-(methoxycarbonyl)-4,5-dihydrothiazol-2-yl)benzo[d]thiazol-6-yl)oxy)carbonyl)(methyl)amino)ethyl)(methyl)carbamoyl)oxy)-1,2-phenylene diacetate] | linear with respect to xanthine oxidase concentration and time | depended on the presence of the xanthine oxidase substrate, xanthine | increased significantly | higher luminescence signal | time dependent increase in signal | – | – | – | – | – | – | – | –
2 | CN(CCN(C)C(=O)Oc1ccc2nc(C3=N[C@@H](C(=O)O)CS3)sc2c1)C(=O)Oc1ccc(O)c(O)c1 [Compound 18, (S)-2-(6-(((2-(((3,4-dihydroxyphenoxy)carbonyl)(methyl)amino)ethyl)(methyl)carbamoyl)oxy)benzo[d]thiazol-2-yl)-4,5-dihydrothiazole-4-carboxylic acid] | – | – | increased significantly | higher luminescence signal | – | – | – | – | – | – | – | – | –
3 | COc1cc(Oc2ccc3nc(C#N)sc3c2)cc(OC)c1O [Compound 1, 6-(4-hydroxy-3,5-dimethoxyphenoxy)benzo[d]thiazole-2-carbonitrile] | – | – | – | – | – | increase in signal | increase in signal | Little to no signal | Little to no signal | Little to no signal | Little to no signal | decreased | strong signal
